Assays:
[1] = Inhibition of TOR signaling in wild-type Saccharomyces cerevisiae transformed with overexpression plasmids assessed as decreased YPT11 gene expression by microarray
[2] = Inhibition of TOR signaling in wild-type Saccharomyces cerevisiae transformed with overexpression plasmids assessed as decreased RTT101 gene expression by microarray
[3] = Inhibition of TOR signaling in wild-type Saccharomyces cerevisiae transformed with overexpression plasmids assessed as decreased DCR2 gene expression by microarray
[4] = Inhibition of TOR signaling in wild-type Saccharomyces cerevisiae transformed with overexpression plasmids assessed as decreased YKL059C gene expression by microarray
[5] = Inhibition of TOR signaling in wild-type Saccharomyces cerevisiae transformed with overexpression plasmids assessed as increased PDR17 gene expression by microarray
[6] = Inhibition of TOR signaling in wild-type Saccharomyces cerevisiae transformed with overexpression plasmids assessed as increased PDR3 gene expression by microarray
[7] = Inhibition of TOR signaling in wild-type Saccharomyces cerevisiae transformed with overexpression plasmids assessed as decreased PEX7 gene expression by microarray
[8] = Inhibition of TOR signaling in wild-type Saccharomyces cerevisiae transformed with overexpression plasmids assessed as decreased SUE1 gene expression by microarray
[9] = Inhibition of TOR signaling in wild-type Saccharomyces cerevisiae transformed with overexpression plasmids assessed as decreased ERO1 gene expression by microarray
[10] = Inhibition of TOR signaling in wild-type Saccharomyces cerevisiae transformed with overexpression plasmids assessed as decreased TUL1 gene expression by microarray
[11] = Inhibition of TOR signaling in wild-type Saccharomyces cerevisiae transformed with overexpression plasmids assessed as increased WRS1 gene expression by microarray
[12] = Inhibition of TOR signaling in wild-type Saccharomyces cerevisiae transformed with overexpression plasmids assessed as increased URA5 gene expression by microarray
[13] = Inhibition of TOR signaling in wild-type Saccharomyces cerevisiae transformed with overexpression plasmids assessed as increased SAS10 gene expression by microarray
[14] = Inhibition of TOR signaling in wild-type Saccharomyces cerevisiae transformed with overexpression plasmids assessed as increased NOP7 gene expression by microarray
[15] = Inhibition of TOR signaling in wild-type Saccharomyces cerevisiae transformed with overexpression plasmids assessed as decreased SHO1 gene expression by microarray
[16] = Inhibition of TOR signaling in wild-type Saccharomyces cerevisiae transformed with overexpression plasmids assessed as increased NEM1 gene expression by microarray
[17] = Inhibition of TOR signaling in wild-type Saccharomyces cerevisiae transformed with overexpression plasmids assessed as decreased ELP2 gene expression by microarray
[18] = Inhibition of TOR signaling in wild-type Saccharomyces cerevisiae transformed with overexpression plasmids assessed as decreased AZR1 gene expression by microarray
[19] = Inhibition of TOR signaling in wild-type Saccharomyces cerevisiae transformed with overexpression plasmids assessed as decreased TPO4 gene expression by microarray
[20] = Inhibition of TOR signaling in wild-type Saccharomyces cerevisiae transformed with overexpression plasmids assessed as increased DSL1 gene expression by microarray
[21] = Inhibition of TOR signaling in wild-type Saccharomyces cerevisiae transformed with overexpression plasmids assessed as increased SEC14 gene expression by microarray
[22] = Inhibition of TOR signaling in wild-type Saccharomyces cerevisiae transformed with overexpression plasmids assessed as decreased APM2 gene expression by microarray
[23] = Inhibition of TOR signaling in wild-type Saccharomyces cerevisiae transformed with overexpression plasmids assessed as increased YPR153W gene expression by microarray
[24] = Inhibition of TOR signaling in wild-type Saccharomyces cerevisiae transformed with overexpression plasmids assessed as increased YEL070W gene expression by microarray
[25] = Inhibition of TOR signaling in wild-type Saccharomyces cerevisiae transformed with overexpression plasmids assessed as decreased CAJ1 gene expression by microarray
[26] = Inhibition of TOR signaling in wild-type Saccharomyces cerevisiae transformed with overexpression plasmids assessed as increased GPM3 gene expression by microarray
[27] = Inhibition of TOR signaling in wild-type Saccharomyces cerevisiae transformed with overexpression plasmids assessed as decreased PTC4 gene expression by microarray
[28] = Inhibition of TOR signaling in wild-type Saccharomyces cerevisiae transformed with overexpression plasmids assessed as decreased GIS4 gene expression by microarray
[29] = Inhibition of TOR signaling in wild-type Saccharomyces cerevisiae transformed with overexpression plasmids assessed as decreased FRE5 gene expression by microarray
[30] = Inhibition of TOR signaling in wild-type Saccharomyces cerevisiae transformed with overexpression plasmids assessed as increased YOL157C gene expression by microarray
[31] = Inhibition of TOR signaling in wild-type Saccharomyces cerevisiae transformed with overexpression plasmids assessed as decreased REH1 gene expression by microarray
[32] = Inhibition of TOR signaling in wild-type Saccharomyces cerevisiae transformed with overexpression plasmids assessed as decreased YBR284W gene expression by microarray
[33] = Inhibition of TOR signaling in wild-type Saccharomyces cerevisiae transformed with overexpression plasmids assessed as increased YCL049C gene expression by microarray
[34] = Inhibition of TOR signaling in wild-type Saccharomyces cerevisiae transformed with overexpression plasmids assessed as increased YFR044C gene expression by microarray
[35] = Inhibition of TOR signaling in wild-type Saccharomyces cerevisiae transformed with overexpression plasmids assessed as decreased YLR224W gene expression by microarray
[36] = Inhibition of TOR signaling in wild-type Saccharomyces cerevisiae transformed with overexpression plasmids assessed as decreased YMR034C gene expression by microarray
Saccharomyces cerevisiae [37] = experiment: Increase of HMI1 gene expression in wild-type Saccharomyces cerevisiae transformed with overexpression plasmids by microarray; assay type: functional
Saccharomyces cerevisiae [38] = experiment: Increase of YDR514C gene expression in wild-type Saccharomyces cerevisiae transformed with overexpression plasmids by microarray; assay type: functional
[39] = Inhibition of TOR signaling in wild-type Saccharomyces cerevisiae transformed with overexpression plasmids assessed as increased ALD6 gene expression by microarray
[40] = Inhibition of TOR signaling in wild-type Saccharomyces cerevisiae transformed with overexpression plasmids assessed as decreased BUD8 gene expression by microarray
[41] = Inhibition of TOR signaling in wild-type Saccharomyces cerevisiae transformed with overexpression plasmids assessed as decreased CDC16 gene expression by microarray
[42] = Inhibition of TOR signaling in wild-type Saccharomyces cerevisiae transformed with overexpression plasmids assessed as decreased HPA2 gene expression by microarray
[43] = Inhibition of TOR signaling in wild-type Saccharomyces cerevisiae transformed with overexpression plasmids assessed as increased CDC54 gene expression by microarray
[44] = Inhibition of TOR signaling in wild-type Saccharomyces cerevisiae transformed with overexpression plasmids assessed as decreased OLE1 gene expression by microarray
[45] = Inhibition of TOR signaling in wild-type Saccharomyces cerevisiae transformed with overexpression plasmids assessed as decreased NRG1 gene expression by microarray

fold change (FC) [1]: -3.1 | fold change (FC) [2]: -3.3 | fold change (FC) [3]: -5.9 | fold change (FC) [4]: -2.3 | fold change (FC) [5]: 2.9 | fold change (FC) [6]: 14.4 | fold change (FC) [7]: -2.8 | fold change (FC) [8]: -2 | fold change (FC) [9]: -2.3 | fold change (FC) [10]: -3.7 | fold change (FC) [11]: 2.8 | fold change (FC) [12]: 2.2 | fold change (FC) [13]: 2.3 | fold change (FC) [14]: 2.4 | fold change (FC) [15]: -4.4 | fold change (FC) [16]: 2.2 | fold change (FC) [17]: -8.1 | fold change (FC) [18]: -3.1 | fold change (FC) [19]: -5.8 | fold change (FC) [20]: 2.4 | fold change (FC) [21]: 4.1 | fold change (FC) [22]: -2.4 | fold change (FC) [23]: 2.1 | fold change (FC) [24]: 3 | fold change (FC) [25]: -5.6 | fold change (FC) [26]: 2.5 | fold change (FC) [27]: -4 | fold change (FC) [28]: -7.2 | fold change (FC) [29]: -8.1 | fold change (FC) [30]: 7.1 | fold change (FC) [31]: -2.2 | fold change (FC) [32]: -3.2 | fold change (FC) [33]: 2.1 | fold change (FC) [34]: 4.7 | fold change (FC) [35]: -2.9 | fold change (FC) [36]: -4.4 | fold change (FC) [39]: 3 | fold change (FC) [40]: -6.4 | fold change (FC) [41]: -2.3 | fold change (FC) [42]: -2.1 | fold change (FC) [43]: 4.5 | fold change (FC) [44]: -3.2 | fold change (FC) [45]: -2.3
SMILES: CO[C@H]1C[C@@H]2CC[C@@H](C)[C@@](O)(O2)C(=O)C(=O)N2CCCC[C@H]2C(=O)O[C@H]([C@H](C)C[C@@H]2CC[C@@H](O)[C@H](OC)C2)CC(=O)[C@H](C)/C=C(\C)[C@@H](O)[C@@H](OC)C(=O)[C@H](C)C[C@H](C)/C=C/C=C/C=C/1C [SIROLIMUS]
fold change (FC) (Saccharomyces cerevisiae [37]): -2.3 | fold change (FC) (Saccharomyces cerevisiae [38]): -3.1

Reference: ChEMBL document CHEMBL1250443, “Microarray-based method for monitoring yeast overexpression strains reveals small-molecule targets in TOR pathway” (Nat Chem Biol, 2006)
